Marks after values point to notes of the source that are not given here.
System: normal human keratinocytes
Test: Hyaluronic acid production by normal human keratinocytes (HA-ELISA of supernatant)
Assay type: cell-based
Details: for % stimulation of hyaluronic acid synthesis: vs Control
Experimental: Normal human keratinocytes were cultured to confluence. Cells were treated with the test products for 48 hours. The supernatants, containing hyaluronic acid, were collected and assayed immediately. Hyaluronic acid was quantified with an ELISA microtiter plate.
Primocultures of normal human keratinocytes (NHK) were obtained from cells isolated from skin specimens from plastic surgery.
NHK were seeded at a density of 130,000 cells/well in specific KSFM culture medium (Gibco®, Invitrogen) in a 24-well plate. The plate was placed in a humid incubator (37° C., 5% CO2) for 24 hours.
The different products at the respective concentrations (diluted in KSFM medium, 600 μl) were contacted with the cells for 48 hours. Untreated cells were used as the control condition.
Each treatment condition was evaluated on three wells of NHK cells.
After 24 hours of treatment, an intermediate sample of […] of supernatant was removed from each well and the plate returned to the incubator (37° C., 5% CO2).
After 48 hours of treatment, the remaining supernatant (≈350 μA) was collected and centrifuged.
Cell supernatants were assayed according to the method described in the Hyaluronan Enzyme-Linked Immunosorbent Assay kit (HA-ELISA, Echelon Biosciences Inc.). This is an ELISA assay with spectrophotometric detection at 405 nm (Safire, Tecan).
The assay was performed in duplicate for each well.
Optical densities (OD) measured on each sample were plotted on a graph (specific standard curve in the kit). The hyaluronic acid concentration was expressed in ng/ml.
The amount of hyaluronic acid released by the cells was determined for each well and for each treatment condition, relative to the cell content expressed as μg of protein. Thus, the final result was expressed as ng/ml of hyaluronic acid per μg of protein.
A mean value was calculated for wells treated with the same concentration of test product. This mean was compared with the mean of the control wells (Student t test−comparison of means−significant difference at 95% if p<0.05* and at 99% if p<0.01*).
The percent stimulation induced by the test products was determined by comparing the mean values of the control and treatment conditions: % Stimulation=(Treated−Control)/Control
The vitamin A propionate was dissolved in DMSO.

## CC(=O)N[C@H]1C(O)O[C@H](COP(=O)(O)O)[C@@H](O)[C@@H]1O (some centres unmarked) [NAG6P, N-acetylglucosamine-6-phosphate]
5 mM, 48 hrs
  Hyaluronic acid: 1817.9 ± 145.1 ng/mL
  Hyaluronic acid (ng/ml/μg prot.): 122.1 ± 25.6 ng/ml/μg prot.
  % stimulation of hyaluronic acid synthesis: 73%*
10 mM, 24 hrs
  Hyaluronic acid: 1067.3 ± 111.9 ng/mL
  % stimulation of hyaluronic acid synthesis: 35%*
10 mM, 24 hrs, listed as N-acetylglucosamine-6-phosphate
  % stimulation of hyaluronic acid synthesis: 35%
10 mM, 48 hrs
  Hyaluronic acid: 2503.2 ± 552.8 ng/mL
  Hyaluronic acid (ng/ml/μg prot.): 165.7 ± 32.4 ng/ml/μg prot.
  % stimulation of hyaluronic acid synthesis: 135%**
10 mM, 48 hrs, listed as N-acetylglucosamine-6-phosphate
  % stimulation of hyaluronic acid synthesis: 135%
20 mM, 48 hrs
  Hyaluronic acid: 3076 ± 260.8 ng/mL
  Hyaluronic acid (ng/ml/μg prot.): 269.6 ± 55.3 ng/ml/μg prot.
  % stimulation of hyaluronic acid synthesis: 282%**
20 mM, 48 hrs, listed as N-acetylglucosamine-6-phosphate
  % stimulation of hyaluronic acid synthesis: 282%

From patent publication US9907760B2 (LIBRAGEN, priority 2010, dated 2018)
